Measured values as given in patent publication US20240360151A1 (SANOFI, priority 2023, published 2024).

Columns and labels:
[1] = tested on: NF-kB pathway (TNF-α secretion by THP-1 cells); experiment: TNF-α secretion assay in LPS-stimulated THP-1 cells, Lumit immunoassay; assay type: cell-based, human; settings: Homo sapiens, THP-1, 3 h, monocytic THP-1 cells, LPS 10 ng/mL, relative IC50, 10 concentrations, geometric mean
Summary of the method: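 THP-1 monocytes in RPMI with 5% FBS were treated with compound, then stimulated with 10 ng/mL LPS for 3 h. Secreted TNF-α was measured in-plate by Lumit immunoassay. Relative IC50 came from 10-concentration curves fitted with a 4-parameter logistic model, reported as geometric mean.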

[2] = biological target: T1, NLRP3 inflammasome (Homo sapiens, UniProt Q96P20); experiment: IL-1β secretion assay (NLRP3 IC50) in LPS-primed, nigericin-activated THP-1 cells, HTRF; assay type: cell-based; settings: monocytic THP-1 cells; LPS 10 ng/mL 3 h priming, then compound + nigericin 10 μM 2 h; relative IC50, 10 concentrations, geometric mean
T1 construct: endogenous in cells; host or cells: THP-1 monocytic cells
T1 sequence (Q96P20 whole entry): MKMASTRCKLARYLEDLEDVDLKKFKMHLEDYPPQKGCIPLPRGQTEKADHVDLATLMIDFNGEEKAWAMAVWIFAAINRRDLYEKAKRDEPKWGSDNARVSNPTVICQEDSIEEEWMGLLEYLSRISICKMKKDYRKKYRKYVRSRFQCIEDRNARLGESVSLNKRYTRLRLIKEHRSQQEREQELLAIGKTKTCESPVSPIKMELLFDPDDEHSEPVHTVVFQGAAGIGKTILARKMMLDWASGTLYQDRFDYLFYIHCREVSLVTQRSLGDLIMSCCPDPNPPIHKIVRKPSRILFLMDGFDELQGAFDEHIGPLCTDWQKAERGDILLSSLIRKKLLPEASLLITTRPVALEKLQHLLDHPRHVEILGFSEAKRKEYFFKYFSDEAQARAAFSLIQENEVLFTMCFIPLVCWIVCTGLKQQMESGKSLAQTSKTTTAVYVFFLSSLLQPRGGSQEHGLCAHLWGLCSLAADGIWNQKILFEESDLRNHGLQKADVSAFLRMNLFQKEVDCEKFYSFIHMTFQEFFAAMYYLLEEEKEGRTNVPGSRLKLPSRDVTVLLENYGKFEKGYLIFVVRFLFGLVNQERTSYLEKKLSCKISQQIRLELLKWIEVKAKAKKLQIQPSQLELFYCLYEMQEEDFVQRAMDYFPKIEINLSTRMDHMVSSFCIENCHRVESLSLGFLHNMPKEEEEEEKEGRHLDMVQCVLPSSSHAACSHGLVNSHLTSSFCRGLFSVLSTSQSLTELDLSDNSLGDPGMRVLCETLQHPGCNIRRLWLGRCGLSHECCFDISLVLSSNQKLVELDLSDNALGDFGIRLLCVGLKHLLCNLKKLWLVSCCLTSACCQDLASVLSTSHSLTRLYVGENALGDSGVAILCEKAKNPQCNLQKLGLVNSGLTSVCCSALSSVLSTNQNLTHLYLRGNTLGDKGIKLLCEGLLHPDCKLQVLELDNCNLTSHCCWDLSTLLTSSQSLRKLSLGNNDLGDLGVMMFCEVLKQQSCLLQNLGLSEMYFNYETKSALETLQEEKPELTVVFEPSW
Summary of the method: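 THP-1 cells primed with LPS 10 ng/mL for 3 h at 37° C., then compound (10-point 1:3 dilution, 0.1% DMSO) added with 10 μM nigericin for 2 h. Supernatant IL-1β measured by HTRF; relative IC50 from a 4-parameter logistic fit, reported as geometric mean.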

Structure (SMILES)	IC50 [1] [nM]	IC50 [2] [nM]
Cc1cc(C)c(-c2ccc(N3CCO[C@@H](CCO)C3)nn2)c(O)c1 (single isomer, unassigned) [Example 234]	> 10000	355
OC[C@@H]1CCCN(c2ccc(-c3c(O)cc(Cl)cc3Cl)nn2)C1 [Example 36, 3,5-dichloro-2-[6-[(3R)-3-(hydroxymethyl)-1-piperidyl]pyridazin-3-yl]phenol]	> 10000	96
Oc1cc(C(F)(F)F)ccc1-c1nnc(N2CCO[C@@H]3CCNC[C@@H]32)cc1C(F)F [Example 382, 2-[6-[(4aS,8aR)-2,3,4a,5,6,7,8,8a-octahydropyrido[4,3-b][1,4]oxazin-4-yl]-4-(difluoromethyl)pyridazin-3-yl]-5-(trifluoromethyl)phenol]	> 10000	12
Cc1cc(C)c(-c2ccc(N3CC(CO)CCC3=O)nn2)c(O)c1 (stereo not drawn) [Example 235, 1-[6-(2-hydroxy-4,6-dimethyl-phenyl)pyridazin-3-yl]-5-(hydroxymethyl) piperidin-2-one]	7130	70
Cc1cc(C)c(-c2ccc(N3CCO[C@H]4CCN(C)C[C@H]43)nn2)c(O)c1 (racemic) [Example 225, 2-[6-[rac-(4aR,8aS)-6-methyl-3,4a,5,7,8,8a-hexahydro-2H-pyrido[4,3-b][1,4]oxazin-4-yl]pyridazin-3-yl]-3,5-dimethyl-phenol]	> 10000	3
CC(=O)N1CC[C@@H]2OCCN(c3ccc(-c4c(C)cc(C(F)(F)F)cc4O)nn3)[C@@H]2C1 (stereo in doubt) [Example 398, 1-[(4aR,8aS)-4-[6-[2-hydroxy-6-methyl-4-(trifluoromethyl)phenyl]pyridazin-3-yl]-3,4a,5,7,8,8a-hexahydro-2H-pyrido[4,3-b][1,4]oxazin-6-yl]ethanone]	> 10000	17
Cc1cc(C)c(-c2cc(C(F)F)c(N3CCO[C@H](CO)C3)nn2)c(O)c1 [Example 170, 2-[5-(difluoromethyl)-6-[(2S)-2-(hydroxymethyl)morpholin-4-yl]pyridazin-3-yl]-3,5-dimethyl-phenol]	> 10000	12
CCN1CC[C@@H]2OCCN(c3ccc(-c4c(C)cc(Cl)cc4O)nn3)[C@@H]2C1 (racemic) [Example 223, 5-chloro-3-methyl-2-[6-[rac-(4aR,8aS)-6-ethyl-3,4a,5,7,8,8a-hexahydro-2H-pyrido[4,3-b][1,4]oxazin-4-yl]pyridazin-3-yl]phenol]	> 10000	1
Cc1cc(C)c(-c2ccc(N3C[C@@H](CO)O[C@@H](C)C3)nn2)c(O)c1 [Example 390, 2-[6-[(2S,6S)-2-(hydroxymethyl)-6-methyl-morpholin-4-yl]pyridazin-3-yl]-3,5-dimethyl-phenol]	> 10000	33
CN(C)C[C@@H]1CCN(c2ccc(-c3c(O)cc(Cl)cc3Cl)nn2)C1 [Example 40, 3,5-dichloro-2-[6-[(3S)-3-[(dimethylamino)methyl]pyrrolidin-1-yl]pyridazin-3-yl]phenol]	> 10000	420
Oc1cc(Cl)cc(Cl)c1-c1ccc(N2CCOC(CF)C2)nn1 (stereo not drawn) [Example 161, 3,5-dichloro-2-[6-[2-(fluoromethyl)morpholin-4-yl]pyridazin-3-yl]phenol]	> 10000	28
Cc1cc(C(F)(F)F)cc(O)c1-c1ccc(N2CCCC2=O)nn1 [Example 61, 1-[6-[2-hydroxy-6-methyl-4-(trifluoromethyl)phenyl]pyridazin-3-yl]pyrrolidin-2-one]	> 10000	90
CN(C)C[C@H]1CCN(c2ccc(-c3c(O)cc(Cl)cc3Cl)nn2)C1 [Example 41, 3,5-dichloro-2-[6-[(3R)-3-[(dimethylamino)methyl]pyrrolidin-1-yl]pyridazin-3-yl]phenol]	> 10000	252
Cc1ccc(-c2nnc(N3CCO[C@@H]4CCNC[C@@H]43)cc2C(F)F)c(O)c1 [Example 322, 2-[6-[(4aS,8aR)-2,3,4a,5,6,7,8,8a-octahydropyrido[4,3-b][1,4]oxazin-4-yl]-4-(difluoromethyl)pyridazin-3-yl]-5-methyl-phenol]	> 10000	80
Cc1cc(C)c(-c2ccc(N3CCO[C@H](CC(N)=O)C3)nn2)c(O)c1 (single isomer, unassigned) [Example 146]	> 10000	242
Cc1cc(C(F)(F)F)cc(O)c1-c1ccc(N2CCC(CO)CC2=O)nn1 (single isomer, unassigned) [Example 293]	> 10000	84
Cc1cc(C)c(-c2ccc(N3C[C@H](CO)CC3=O)nn2)c(O)c1 (single isomer, unassigned) [Example 137]	> 10000	411

Structure (SMILES)	IC50 [1] [nM]	IC50 [2] [nM]
CCN1C[C@@H]2OCCN(c3ccc(-c4c(C)cc(C(F)(F)F)cc4O)nn3)[C@@H]2C1 (racemic) [Example 361, 3-methyl-2-[6-[rac-(4aR,7aS)-6-ethyl-2,3,4a,5,7,7a-hexahydropyrrolo[3,4-b][1,4]oxazin-4-yl]pyridazin-3-yl]-5-(trifluoromethyl)phenol]	> 10000	8
Cc1cc(C)c(-c2ccc(N3CCC[C@]4(C3)C[C@H](O)C4)nn2)c(O)c1 (single isomer, unassigned; isomer 1) [Example 175, 6-[6-(2-hydroxy-4,6-dimethyl-phenyl)pyridazin-3-yl]-6-azaspiro[3.5]nonan-2-ol Isomer 1]	> 10000	522
Cc1cc(N2CCO[C@@H]3CCN(C)C[C@@H]32)nnc1-c1ccc(Cl)cc1O [Example 379, 2-[6-[(4aS,8aR)-6-methyl-3,4a,5,7,8,8a-hexahydro-2H-pyrido[4,3-b][1,4]oxazin-4-yl]-4-methyl-pyridazin-3-yl]-5-chloro-phenol]	> 10000	1
Cc1cc(C)c(-c2ccc(N3CC[C@H](CO)C3=O)nn2)c(O)c1 (single isomer, unassigned) [Example 139]	> 10000	235
CCN1CC[C@H]2OCCN(c3cc(C)c(-c4ccc(C)cc4O)nn3)[C@H]2C1 [Example 435, 2-[6-[(4aS,8aR)-6-ethyl-3,4a,5,7,8,8a-hexahydro-2H-pyrido[4,3-b][1,4]oxazin-4-yl]-4-methyl-pyridazin-3-yl]-5-methyl-phenol]	> 10000	3
Cc1cc(C(F)(F)F)cc(O)c1-c1nnc(N2CCO[C@H](CO)C2)cc1C(F)F [Example 248, 2-[4-(difluoromethyl)-6-[(2S)-2-(hydroxymethyl)morpholin-4-yl]pyridazin-3-yl]-3-methyl-5-(trifluoromethyl)phenol]	> 10000	81
Cc1cc(Cl)cc(O)c1-c1cc(C(F)F)c(N2CCO[C@H](CO)C2)nn1 [Example 171, 5-chloro-2-[5-(difluoromethyl)-6-[(2S)-2-(hydroxymethyl)morpholin-4-yl]pyridazin-3-yl]-3-methyl-phenol]	> 10000	7
Cc1cc(C)c(-c2ccc(N3CCCc4cccc(O)c43)nn2)c(O)c1 [Example 231, 1-[6-(2-hydroxy-4,6-dimethyl-phenyl)pyridazin-3-yl]-3,4-dihydro-2H-quinolin-8-ol]	> 10000	219
Cc1cc(C)c(-c2ccc(N3CCC[C@H](N)C3)nn2)c(O)c1 [Example 69, 2-[6-[(3S)-3-amino-1-piperidyl]pyridazin-3-yl]-3,5-dimethyl-phenol]	> 10000	200
CCc1cc(Cl)cc(O)c1-c1ccc(N2CCO[C@@H]3CCN(C(C)=O)C[C@@H]32)nn1 [Example 381, 1-[(4aS,8aR)-4-[6-(4-chloro-2-ethyl-6-hydroxy-phenyl)pyridazin-3-yl]-3,4a,5,7,8,8a-hexahydro-2H-pyrido[4,3-b][1,4]oxazin-6-yl]ethanone]	> 10000	3
CCc1cc(N2CCO[C@H](CO)C2)nnc1-c1ccc(Cl)cc1O [Example 73, 5-chloro-2-[4-ethyl-6-[(2S)-2-(hydroxymethyl)morpholin-4-yl]pyridazin-3-yl]phenol]	> 10000	56
CC(=O)NC[C@@H]1CCCN(c2ccc(-c3c(C)cc(Cl)cc3O)nn2)C1 [Example 211, N-[[(3S)-1-[6-(4-chloro-2-hydroxy-6-methyl-phenyl)pyridazin-3-yl]-3-piperidyl]methyl]acetamide]	> 10000	34
Cc1cc(C)c(-c2ccc(N3CCO[C@H](CF)C3)nn2)c(O)c1 [Example 219, 2-[6-[(2S)-2-(fluoromethyl)morpholin-4-yl]pyridazin-3-yl]-3,5-dimethyl-phenol]	> 10000	103
Cc1cc(C(F)(F)F)cc(O)c1-c1ccc(N2C[C@@H](CO)O[C@H](C)C2)nn1 [Example 296, 2-[6-[(2S,6R)-2-(hydroxymethyl)-6-methyl-morpholin-4-yl]pyridazin-3-yl]-3-methyl-5-(trifluoromethyl)phenol]	> 10000	28
NC[C@H]1CCCN(c2ccc(-c3c(O)cc(Cl)cc3Cl)nn2)C1 [Example 22, 2-[6-[(3R)-3-(aminomethyl)-1-piperidyl]pyridazin-3-yl]-3,5-dichloro-phenol]	> 10000	153
Cc1cc(C)c(-c2ccc(N3CCC[C@H](O)C3)nn2)c(O)c1 [Example 67, (3S)-1-[6-(2-hydroxy-4,6-dimethyl-phenyl)pyridazin-3-yl]piperidin-3-ol]	> 10000	306
